# US12264204B2, “Peptide for improving memory and preventing or alleviating cognitive dysfunction, composition comprising the same, and method for producing the same” (NATURESENSE CO., LTD., priority 2019, dated 2025)
# Where no end group is shown, it is not given here.
# Tested on: Sprague-Dawley rats
# Experiment: Delayed alternation test (T-maze) for cognitive function improvement
# Assay type: in vivo, rat
# Settings: oral, 100 mg/ml solution; for effect of improving cognitive function and memory in the early stage of administration: delay of 5 seconds, early stage of 9-day training; for effect of improving cognitive function and memory (T-maze performance): delay of 5 seconds between trials, 9 days training
# Method: Experimental animals were white male Sprague-Dawley rats (140 to 180 g, Daehan Biolink Co., Ltd.). These rats were housed in cages (4 rats per cage) in a constant environment (temperature: 25±1° C., and relative humidity: 60±10%) for one week and allowed to access water ad libitum. At this time, the feed was fed in a limited manner so that 80% of the body weight was kept. In this experiment, a total of 50 rats were used. The rats were adapted to the maze for 5 minutes a day for 3 days before training.
# In the first trial, the animals were adapted to the start arm. The first trial is a “forced-choice trial”, in which one arm was blocked with the door and when the animal entered the other arm, the rear was blocked with the door. The animal was considered as entering the arm when all four paws passed through the entrance. The animal was allowed to eat feed in the corresponding arm for 60 seconds. The next trials were “free-choice trials”, in which the animal was free to choose the direction of the arm (left or right) starting from the start arm. The animal was made to be able to eat food as a reward only when it entered the arm that entered in the previous trial and the opposite arm.
# The trials were performed with delays of 5 seconds and 20 seconds, and the cut-off time of each trial was set to 60 seconds. The number of times the animal entered the forced-choice arm and the time taken to enter the arm were measured. The same procedure was performed for 9 days with 10 trials per day, followed by assessment.
# The silk peptides NF1, NF2 and TF1 to TF9 were prepared into solutions, each containing 100 mg/ml of each peptide, and were administered orally. All the samples were dissolved in distilled water and administered orally.
Substance,effect of improving cognitive function and memory in the early stage of administration,effect of improving cognitive function and memory (T-maze performance)
Ala-Gly-Gly-Ala (AGGA; printed: Ala-Gly-Gly-Ala) [Peptide P4-1],significantly increased effect of improving cognitive function and memory in the early stage of administration,
Ile-Gly-Ala-Tyr (IGAY; printed: Ile-Gly-Ala-Tyr) [Peptide P2-3],,relatively low
Ile-Gly-Gln-Gly (IGQG; printed: Ile-Gly-Gln-Gly) [Peptide P2-4],,relatively low
Ile-Gly-Tyr-Val (IGYV; printed: Ile-Gly-Tyr-Val) [Peptide P2-1],,relatively low
Ile-Gly-Val-Ala (IGVA; printed: Ile-Gly-Val-Ala) [Peptide P2-2],,relatively better
Ile-Gly-Val-Ala-Gly (IGVAG; printed: Ile-Gly-Val-Ala-Gly) [Peptide F3],"high activity of improving cognitive function and memory in an early stage, compared to P2-2","high effect of improving cognitive function and memory, compared to P2-2"
Ile-Gly-Val-Ala-Thr (IGVAT; printed: Ile-Gly-Val-Ala-Thr) [Peptide F1],"high activity of improving cognitive function and memory in an early stage, compared to P2-2","high effect of improving cognitive function and memory, compared to P2-2"
Ile-Gly-Val-Ala-Tyr (IGVAY; printed: Ile-Gly-Val-Ala-Tyr) [Peptide F2],"high activity of improving cognitive function and memory in an early stage, compared to P2-2","high effect of improving cognitive function and memory, compared to P2-2"
Tyr-Gly-Ala-Ala (YGAA; printed: Tyr-Gly-Ala-Ala) [Peptide P1-3],,increased effect of improving cognitive function and memory
Tyr-Gly-Gly-Ala (YGGA; printed: Tyr-Gly-Gly-Ala) [Peptide P1-2],,increased effect of improving cognitive function and memory
Tyr-Gly-Gly-Tyr (YGGY; printed: Tyr-Gly-Gly-Tyr) [Peptide P4-2],,increased effect of improving cognitive function and memory
Tyr-Gly-Ile-Ala (YGIA; printed: Tyr-Gly-Ile-Ala) [Peptide P1-6],significantly increased effect of improving cognitive function and memory in the early stage of administration,increased effect of improving cognitive function and memory
Tyr-Gly-Val-Ile (YGVI; printed: Tyr-Gly-Val-Ile) [Peptide P1-5],,increased effect of improving cognitive function and memory
YGGYGI [Peptide P5-1],excellent activity of improving cognitive function and memory in the early stage,clearly better effect of improving cognitive function and memory than P4-2
